The structures appear in SMILES notation.

The test system of data set [1] is Asns, Gpt2, eIF4Ebp1 mRNA. Kind of data set: Quantitative real-time PCR of AAR-associated genes in T cells. The format is cell-based, mouse. Conditions: 10 nM HF, within 4 hours of T cell activation. As for the experimental part:
FIG. 12C is a graph depicting the results of quantitative real-time PCR performed on cDNA generated from resting naïve T cells (TN) or T cells activated for 4 hours in the presence of 10 nM MAZ1310 or 10 nM HF. Asns, Gpt2 or eIF4Ebp1 mRNA expression was normalized to Hprt levels and data are presented as mean values±SD in duplicate samples.
Quantitative real-time PCR: T cells were activated as described above, collected at the indicated times and pellets were flash-frozen in liquid nitrogen. Total RNA was obtained by RNeasy (Quiagen, Valencia, Calif.) column purification per manufacturers instructions. RORγt expression was determined after reverse transcription using the message sensor kit (Ambion, Austin, Tex.) per manufacturers instructions and taqman primers and probe as described elsewhere (I. Ivanov, et al., Cell 126, 1121, 2006). Sybrgreen quantitative real-time PCR was performed on T cell RNA samples following reverse transcription via SuperScript II first-strand cDNA synthesis kit (Invitrogen, Carlsbad, Calif.). All PCR data was collected on an iCycler thermal cycler (Biorad, Hercules, Calif.). Primer sequences used for detecting stress response genes are listed below.

The test system of data set [2] is STAT3 phosphorylation. The experiment in a line: Kinetics of STAT3 phosphorylation in developing Th17 cells. The format is cell-based, mouse. The procedure: FIG. 11A is a series of graphs depicting representative histograms displaying the kinetics of STAT3 phosphorylation in developing Th17 cells treated with or without HF. Resting naïve T cells (shaded peak), T cells activated in the presence of TGFβ plus IL-6 (TGFβ/IL-6) treated with 10 nM MAZ1310, TGFβ/IL-6-activated T cells treated with 5 nM HF, TGFβ/IL-6-activated T cells treated with 10 nM HF. T cells were fixed at the indicated times and intracellular phospho-STAT3 staining was performed.
FACS analyses and sorting: All cell surface staining was performed in FACS buffer (PBS/2% FCS/0.1% NaN3) and antibodies were incubated with cells on ice for 20-30 minutes. Cells were washed with FACS buffer and fixed with FACS buffer plus 1% paraformaldehyde prior to data acquisition. For phospho-STAT3 intracellular staining, stimulated T cells cultured with or without TGF plus IL-6 for the indicated times were harvested on ice and fixed in PBS plus 2% paraformaldehyde for 10 minutes at 37° C. Fixed cells were washed twice with staining buffer (PBS/1% BSA/0.1% NaN3) and then permeabilized with perm buffer III (BD Pharmingen) on ice for 30 minutes. […] All FACS data was acquired on a FACSCalibur flow cytometer (BD Pharmingen) and analyzed using FlowJo software (Treestar, Inc., Ashland, Oreg.). […]

Data set [3] concerns TGFβ-induced Smad phosphorylation. The experiment in a line: TGFβ signaling in T and B cells (Smad phosphorylation, lymphocyte responses to TGFβ). The format is cell-based, mouse. Conditions: HF 2.5-40 nM or 10 nM; SB-431542 10 μM. The procedure: T cells were then activated in the presence or absence of 3 ng/ml. TGFβ. Whole cell extracts were prepared after 1 hour of stimulation and western blot analyses were performed using the indicated antibodies.
Western blotting: Whole cell lysates were generated from T cells activated for the indicated times. For STAT3 and Smad2/3 western blots cells were harvested, washed in PBS and lysed in 50 mM Tris, pH 7.4, 0.1% SDS, 1% Triton-X100, 140 mM NaCl, 1 mM EDTA, 1 mM EGTA supplemented with protease inhibitors tablets (Roche-Germany), 1 mM NaF and 1 mM Na3VO4. For eIF2α and ATF4 western blots, cells were harvested as above and lysed in 50 mM Tris, pH 7.4, 2% SDS, 20% glycerol and 2 mM EDTA supplemented with protease and phosphatase inhibitors as above. All lysates were cleared via centrifugation and 15-30 μg of protein was resolved by SDS-PAGE. Protein was transferred to nitrocellulose membranes, blocked and blotted using specific antibodies. Antibodies used for western blot analysis were anti-phospho-Smad2, anti-STAT3 (pY705), anti-STAT3, anti-eIF2α^pS51, anti-eIF2α, anti-GCN2^pT898, anti-GCN2 (all from cell signaling technology, Danvers, Mass.). Anti-ATF4/CREB2 and anti-β-actin were purchased from Santa Cruz biotechnology (Santa Cruz, Calif.). […]

The test system of data set [4] is Xenopus feeding stage tadpoles. Kind of data set: Toxicity in Xenopus feeding stage tadpoles. The format is in vivo. Particulars: 400 nM HF, 7 days. The procedure: At concentrations over 80 nM, HF has a variety of non-specific effects on both T-cells and fibroblasts. […] At the recommended tolerated dose for chronic treatment (0.5 mg/day), plasma levels of HF were ˜0.5 ng/ml (1 nM). (de.Jonge et al., Eur J Cancer, vol. 42(12):1768-74 (2006)).

Regarding `O=C(CC1NCCCC1O)Cn1cnc2cc(Br)c(Cl)cc2c1=O` (racemic) [HF, 7-bromo-6-chloro-3-[3-(3-hydroxy-2-piperidinyl)-2-oxopropyl]-4(3H)-quinazolinone], the “Asns, Gpt2, eIF4Ebp1 mRNA (qPCR), in words” value in data set [1] is on record as “induced”. The “time post activation at which maintenance of STAT3 phosphorylation begins to decrease” value in data set [2] (5 or 10 nM HF, TGFβ plus IL-6) was “around 12 hours”. Also, the “effect on early STAT3 activation, in words” value in data set [2] (first 6 hours of Th17 differentiation) is on record as “did not interfere with STAT3 activation during the first 6 hours”. For the same compound, the “effect on TGFβ-induced Smad phosphorylation and other lymphocyte responses to TGFβ, in words” value in data set [3] was “inhibited neither TGFβ-induced Smad phosphorylation”. Further, in data set [4], the “toxic effects in tadpoles, in words” value was “does not have detectable toxic effects”.

The record behind these values is patent publication US20110212100A1, “METHODS FOR MODULATING DEVELOPMENT AND EXPANSION OF IL-17 EXPRESSING CELLS” (priority 2007, published 2011).
